Legend:
[1] = GVS (Dynamic Vapour Sorption) water uptake of crystalline forms; type: physicochemical; settings: ±0.2%; for GVS weight increase: at 80% RH; for water uptake as measured by GVS: between RH of 0%-80%
Protocol: GVS profiles were measured using a Dynamic Vapour Sorption DVS-1 instrument. The solid sample ca. 1-5 mg was placed into a glass vessel and the weight of the sample was recorded during a dual cycle step method (40 to 90 to 0 to 90 to 0% relative humidity (RH), in steps of 10% RH).

[2] = molecular target: human active recombinant p38α-6His tagged (Homo sapiens, UniProt Q16539); test: P38 Alpha Enzyme Assay (AlphaScreen, biotinylated-ATF2 substrate); type: biochemical; settings: p38 alpha enzyme inhibition; means of replicate determinations; 4 h pre-incubation at 37° C.; SD of assay 0.2-0.3 log units;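 also: 0.5 nM final p38α, reaction started with ATP and run 45 min at 37 °C, phospho-ATF2 read by antibody-based AlphaScreen, background wells quenched with EDTA before ATP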
Chain of human active recombinant p38α-6His tagged (Q16539 whole entry): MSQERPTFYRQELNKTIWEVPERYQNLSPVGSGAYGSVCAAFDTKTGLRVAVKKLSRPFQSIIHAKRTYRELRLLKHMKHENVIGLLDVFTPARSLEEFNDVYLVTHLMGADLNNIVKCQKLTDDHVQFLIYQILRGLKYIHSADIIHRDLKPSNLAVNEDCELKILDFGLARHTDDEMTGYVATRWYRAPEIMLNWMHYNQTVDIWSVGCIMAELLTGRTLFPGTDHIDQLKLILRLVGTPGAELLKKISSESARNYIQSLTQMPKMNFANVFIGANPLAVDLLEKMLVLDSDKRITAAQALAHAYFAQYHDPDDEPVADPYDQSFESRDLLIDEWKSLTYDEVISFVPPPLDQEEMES

| Structure (SMILES) | pIC50 [2] | other results |
| --- | --- | --- |
| CNCCOc1ccccc1C(C)(C)Nc1nccn(-c2cc(C(=O)NC3CC3)ccc2C)c1=O [example 163 crystalline form A, N-Cyclopropyl-4-methyl-3-[3-[[1-methyl-1-[2-[2-(methylamino)ethoxy]phenyl]ethyl]amino]-2-oxo-1(2H)-pyrazinyl]-benzamide Crystalline Form A] |  | GVS weight increase [1]: 5 % w/w |
| CNCCOc1ccccc1C1(Nc2nccn(-c3cc(C(=O)NC4CC4)ccc3C)c2=O)CC1 [example 167 Crystalline Form A, N-Cyclopropyl-4-methyl-3-[3-[[1-[2-[2-(methylamino)ethoxy]phenyl]cyclopropyl]amino]-2-oxo-1(2H)-pyrazinyl]-benzamide Crystalline Form A] |  | water uptake as measured by GVS [1]: 1% |
| CNCCOc1ccccc1C(C)(C)Nc1nccn(-c2cc(C(=O)NC3CC3)ccc2C)c1=O [example 163 crystalline form C, N-Cyclopropyl-4-methyl-3-[3-[[1-methyl-1-[2-[2-(methylamino)ethoxy]phenyl]ethyl]amino]-2-oxo-1(2H)-pyrazinyl]-benzamide Crystalline Form C] |  | GVS weight increase [1]: 0.3 % w/w |
| Cc1c(F)cc(C(=O)NC2CC2)cc1-n1ccnc(NC2(c3ccccc3OCCNCCO)CC2)c1=O [example 260 crystalline form A, N-Cyclopropyl-3-fluoro-5-[3-[[1-[2-[2-[(2-hydroxyethyl)amino]ethoxy]phenyl]cyclopropyl]amino]-2-oxo-1(2H)-pyrazinyl]-4-methyl-benzamide Crystalline Form A] |  | water uptake as measured by GVS [1]: 1.2% |
| CNCCOc1ccccc1C1(Nc2nccn(-c3cc(C(=O)NC4CC4)cc(F)c3C)c2=O)CC1 [example 259 crystalline form A, N-Cyclopropyl-3-fluoro-4-methyl-5-[3-[[1-[2-[2-(methylamino)ethoxy]phenyl]cyclopropyl]amino]-2-oxo-1(2H)-pyrazinyl]-benzamide Crystalline Form A] |  | water uptake as measured by GVS [1]: 0.4% |
| CNCCOc1ccccc1C(C)(C)Nc1nccn(-c2cc(C(=O)NC3CC3)ccc2C)c1=O.Cc1ccc(S(=O)(=O)O)cc1 [N-Cyclopropyl-4-methyl-3-[3-[[1-methyl-1-[2-[2-(methylamino)ethoxy]phenyl]ethyl]amino]-2-oxo-1(2H)-pyrazinyl]-benzamide Tosylate Salt Crystalline Form A] |  | GVS weight increase [1]: 0.1 % w/w |
| Cc1ccc(C(=O)NC2CC2)cc1-n1ccnc(N[C@@H](c2ccccc2)[C@@H](C)CN2CCSCC2)c1=O [Example 189, N-Cyclopropyl-4-methyl-3-[3-[[(1R,2S)-2-methyl-1-phenyl-3-(4-thiomorpholinyl)propyl]amino]-2-oxo-1(2H)-pyrazinyl]-benzamide] | 9.2 |  |
| CC(C)(Nc1nccn(-c2cc(C(=O)NC3CC3)ccc2Cl)c1=O)c1ccccc1OCCNCCO [Example 331, 4-Chloro-N-cyclopropyl-3-[3-{[1-(2-{2-[(2-hydroxyethyl)amino]ethoxy}phenyl)-1-methylethyl]amino}-2-oxopyrazin-1(2H)-yl]benzamide] | 9.6 |  |
| CNCCOc1ccccc1C(C)(C)Nc1nccn(-c2cc(C(=O)NC3CC3)ccc2C)c1=O [example 163 crystalline form B, N-Cyclopropyl-4-methyl-3-[3-[[1-methyl-1-[2-[2-(methylamino)ethoxy]phenyl]ethyl]amino]-2-oxo-1(2H)-pyrazinyl]-benzamide Crystalline Form B] |  | GVS weight increase [1]: 4.3 % w/w |
| CNCCOc1ccccc1C(C)(C)Nc1nccn(-c2cc(C(=O)NCC(C)C)ccc2C)c1=O [Example 226, 4-Methyl-3-[3-[[1-methyl-1-[2-[2-(methylamino)ethoxy]phenyl]ethyl]amino]-2-oxo-1(2H)-pyrazinyl]-N-(2-methylpropyl)-benzamide] | 6.6 |  |
| Cc1ccc(C(=O)NC2CC2)cc1-n1ccnc(NCc2cc(C(F)(F)F)cc(C(F)(F)F)c2)c1=O [Example 99, 3-[3-[[[3,5-Bis(trifluoromethyl)phenyl]methyl]amino]-2-oxo-1(2H)-pyrazinyl]-N-cyclopropyl-4-methyl-benzamide] | 7.1 |  |
| Cc1ccc(C(=O)NC2CC2)cc1-n1ccnc(NC(C)(C)c2ccccc2OCCNCCO)c1=O [Example 211, N-Cyclopropyl-3-[3-[[1-[2-[2-[(2-hydroxyethyl)amino]ethoxy]phenyl]-1-methylethyl]amino]-2-oxo-1(2H)-pyrazinyl]-4-methyl-benzamide] | 9.6 |  |

Continued, in another order:

| pIC50 [2] | Structure (SMILES) | other results |
| --- | --- | --- |
| 10.4 | CNCCOc1ccccc1C(C)(C)Nc1nccn(-c2cc(C(=O)NOC)cc(F)c2C)c1=O [Example 316, 3-Fluoro-N-methoxy-4-methyl-5-{3-[(1-methyl-1-{2-[2-(methylamino)ethoxyl]phenyl}ethyl)amino]-2-oxopyrazin-1(2H)-yl}benzamide] |  |
| 8.1 | CNCCOc1ccccc1C1(Nc2nccn(-c3cc(C(=O)NC4CC4)c(F)cc3C)c2=O)CC1 [Example 319, N-Cyclopropyl-2-fluoro-4-methyl-5-{3-[(1-{2-[2-(methylamino)ethoxy]phenyl}cyclopropyl)amino]-2-oxopyrazin-1(2H)-yl}benzamide] |  |
| 9.3 | CCNCCOc1c(F)cccc1C1(Nc2nccn(-c3cc(C(=O)NC4CC4)ccc3C)c2=O)CC1 [Example 286, N-Cyclopropyl-3-{3-[(1-{2-[2-(ethylamino)ethoxy]-3-fluorophenyl}cyclopropyl)amino]-2-oxopyrazin-1(2H)-yl}-4-methylbenzamide] |  |
| 9.7 | CNCCOc1ccccc1C1(Nc2nccn(-c3cc(C(=O)NC4CC4)ccc3C)c2=O)CC1 [Example 167, N-Cyclopropyl-4-methyl-3-[3-[[1-[2-[2-(methylamino)ethoxy]phenyl]cyclopropyl]amino]-2-oxo-1(2H)-pyrazinyl]-benzamide] |  |
| 8.9 | CCc1ccc(C(=O)NC2CC2)cc1-n1ccnc(NC(C)(C)c2ccccc2OCCNC[C@H](C)O)c1=O [Example 289, N-Cyclopropyl-4-ethyl-3-[3-({1-[2-(2-{[(2S)-2-hydroxypropyl]amino}ethoxy)phenyl]-1-methylethyl}amino)-2-oxopyrazin-1(2H)-yl]benzamide] |  |
| 6.7 | Cc1ccc(CCNc2nccn(-c3cc(C(=O)NC4CC4)ccc3C)c2=O)cc1 [Example 74, N-Cyclopropyl-4-methyl-3-[3-[[2-(4-methylphenyl)ethyl]amino]-2-oxo-1(2H)-pyrazinyl]-benzamide] |  |
| 10.1 | Cc1c(F)cc(C(=O)NC2CC2)cc1-n1ccnc(NC2(c3ccccc3OCCNC(C)C)CC2)c1=O [Example 264, N-Cyclopropyl-3-fluoro-4-methyl-5-[3-[[1-[2-[2-[(1-methylethyl)amino]ethoxy]phenyl]cyclopropyl]amino]-2-oxo-1(2H)-pyrazinyl]-benzamide] |  |
| 10.3 | Cc1c(F)cc(C(=O)NC2CC2)cc1-n1ccnc(NC(C)(C)c2ccccc2OCCNCC(C)(C)O)c1=O [Example 257, N-Cyclopropyl-3-fluoro-5-[3-[[1-[2-[2-[(2-hydroxy-2-methylpropyl)amino]ethoxy]phenyl]-1-methylethyl]amino]-2-oxo-1(2H)-pyrazinyl]-4-methyl-benzamide] |  |

Source: US20120214822A1 (ASTRAZENECA AB, priority 2007, published 2012)
